Test results from ChEMBL document CHEMBL6109133, “Towards P2X4 Positron Emission Tomography Tracing” (J Med Chem, 2025).

What was measured:
P2X purinoceptor 4 = biological target: T1, P2X purinoceptor 4 (Homo sapiens, UniProt Q99571); experiment: Antagonist activity at human P2X4 receptor
T1 sequence (Q99571 whole entry): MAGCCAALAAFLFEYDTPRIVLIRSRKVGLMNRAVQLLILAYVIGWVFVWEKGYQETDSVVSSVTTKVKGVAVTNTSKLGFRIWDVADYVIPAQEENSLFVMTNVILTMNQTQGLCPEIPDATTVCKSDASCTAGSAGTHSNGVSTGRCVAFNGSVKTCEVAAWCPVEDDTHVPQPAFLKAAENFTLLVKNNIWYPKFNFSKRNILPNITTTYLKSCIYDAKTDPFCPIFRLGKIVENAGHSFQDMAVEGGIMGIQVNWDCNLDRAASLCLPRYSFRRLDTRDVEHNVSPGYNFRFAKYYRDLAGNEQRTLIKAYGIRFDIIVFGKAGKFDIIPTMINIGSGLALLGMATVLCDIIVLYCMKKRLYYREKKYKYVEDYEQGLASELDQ

[1] = Plasma protein binding in mouse; assay type: ADME, cell-free; settings: read-out: PPB

Row | Structure (SMILES) | IC50 (P2X purinoceptor 4) [nM] | fraction unbound [1]
1 | Cc1cc(F)ccc1CS(=O)(=O)Nc1ccc(N2C(=O)CC(=O)Nc3c2ccc2ccccc32)cc1 | 8 | < 0.02
2 | Cc1cc(F)ccc1S(=O)(=O)Nc1ccc(N2C(=O)CC(=O)Nc3c2ccc2ccccc32)cc1 | 64 | < 0.02
